Test results: patent US10098964B2, “Inclusion complexes and methods for making the same” (The Board of Trustees of the University of Illinois, priority 2015, dated 2018)

What was measured:
[1] = In-vitro fermentation (large intestine): butyrate produced; format: in vitro ADME
[2] = cited from earlier work

Row | Compound | Butyrate produced, 4 hr ([1]; fermentation 4 hr, representative of ascending large intestine) | Butyrate produced, 8 hr ([1]; fermentation 8 hr, representative of transverse large intestine) | Butyrate produced, 12 hr ([1]; fermentation 12 hr, representative of descending large intestine) | half-life in human plasma [2]
1 | CCCC(=O)OCC(COC(=O)CCC)OC(=O)CCC [Tributyrin, 1,3-di(butanoyloxy)propan-2-yl butanoate] | 106389.69 µg/g (DMB) | 164605.74 µg/g (DMB) | 134093.05 µg/g (DMB) | –
2 | CCCC(=O)O [butyrate, butyric acid] | – | – | – | < 6 min
